# From US9777017B2, “Tricyclic fused thiophene derivatives as JAK inhibitors” (Incyte Corporation, priority 2012, dated 2017)
# pIC50: −log10 of the molar value. Counter-ions that a name gives are not always drawn.
# How the values were obtained:
# Format in all cases: biochemical
# human JAK1 [1] = test: In vitro JAK kinase assay (HTRF, phosphorylation of a biotinylated peptide), JAK1; design: key to JAK1 IC50 (nM): +indicates an IC50 of ≦100 nM; ++indicates an IC50 of ≦1000 nM; +++indicates an IC50 of ≦2000 nM; ++++indicates an IC50 of >2000 nM; +++++indicates that the IC50 was greater than the highest concentration tested; conditions: ratio of IC50s, 1 mM ATP
# Experimental: (§1) Compounds herein were tested for inhibitory activity of JAK targets according to the following in vitro assay described in Park et al., Analytical Biochemistry 1999, 269, 94-104. The catalytic domains of human JAK1 (a.a. 837-1142), JAK2 (a.a. 828-1132) and JAK3 (a.a. 781-1124) were expressed using baculovirus in insect cells and purified. The catalytic activity of JAK1, JAK2 or JAK3 was assayed by measuring the phosphorylation of a biotinylated peptide. The phosphorylated peptide was detected by homogenous time resolved fluorescence (HTRF). IC50s of compounds were measured for each kinase in the 40 μL reactions that contain the enzyme, ATP and 500 nM peptide in 50 mM Tris (pH 7.8) buffer with 100 mM NaCl, 5 mM DTT, and 0.1 mg/mL (0.01%) BSA. For the 1 mM IC50 measurements, ATP concentration in the reactions was 1 mM. Reactions were carried out at room temperature for 1 hour and then stopped with 20 μL 45 mM EDTA, 300 nM SA-APC, 6 nM Eu-Py20 in assay buffer (Perkin Elmer, Boston, Mass.). Binding to the Europium labeled antibody took place for 40 minutes and HTRF signal was measured on a PHERA star plate reader (BMG, Cary, N.C.). The Example compounds were each tested in the Example A assay (see Table 1 for data for the compounds of the examples as tested by the assay of Example A at 1 mM ATP).
# human JAK2 = human JAK2 (Homo sapiens (Human), UniProt O60674); test: In vitro JAK kinase assay (HTRF, phosphorylation of a biotinylated peptide), JAK2; design: key to JAK2 IC50 (nM): +indicates an IC50 of ≦100 nM; ++indicates an IC50 of ≦1000 nM; +++indicates an IC50 of ≦2000 nM; ++++indicates an IC50 of >2000 nM; +++++indicates that the IC50 was greater than the highest concentration tested; conditions: 1 mM ATP
# Chain of human JAK2 (O60674 828-1132): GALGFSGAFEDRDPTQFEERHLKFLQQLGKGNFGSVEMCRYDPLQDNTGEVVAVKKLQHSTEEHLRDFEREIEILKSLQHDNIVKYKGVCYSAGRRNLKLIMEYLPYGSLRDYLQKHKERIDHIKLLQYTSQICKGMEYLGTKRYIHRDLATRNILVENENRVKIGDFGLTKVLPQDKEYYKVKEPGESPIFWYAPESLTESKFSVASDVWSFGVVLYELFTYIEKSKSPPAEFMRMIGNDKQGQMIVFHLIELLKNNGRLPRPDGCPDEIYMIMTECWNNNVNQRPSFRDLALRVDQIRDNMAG
# Experimental: as §1
# human JAK1 [2] = target: human JAK1 (Homo sapiens, UniProt P23458); test: In vitro JAK kinase assay (HTRF, phosphorylation of a biotinylated peptide), JAK1; design: key to JAK1 IC50 (nM): +indicates an IC50 of ≦100 nM; ++indicates an IC50 of ≦1000 nM; +++indicates an IC50 of ≦2000 nM; ++++indicates an IC50 of >2000 nM; +++++indicates that the IC50 was greater than the highest concentration tested; conditions: 1 mM ATP
# Experimental: as §1
JAK2/JAK1 (human JAK1 [1]),pIC50 (human JAK2),pIC50 (human JAK1 [2]),JAK2 IC50 (nM) (human JAK2),JAK1 IC50 (nM) (human JAK1 [2]),Compound
>10,,,+++++,,"C[C@@H](O)c1nc2cnc3ccsc3c2n1C1CCNCC1F (single isomer, unassigned) [9 (2nd peak)]"
,,,+++++,+++++,"C[C@@H](O)c1nc2cnc3ccsc3c2n1C1CCNCC1F (stereo partly drawn) [9 (1st peak), (1R)-1-[1-(3-Fluoropiperidin-4-yl)-1H-imidazo[4,5-d]thieno[3,2-b]pyridin-2-yl]ethanol]"
>3,,≥ 6.00,+++++,,"C[C@@H](O)c1nc2cnc3ccsc3c2n1[C@H]1CCCOC1 [Example 1, (1R)-1-{1-[(3S)-Tetrahydro-2H-pyran-3-yl]-1H-imidazo[4,5-d]thieno[3,2-b]pyridin-2-yl}ethanol]"
>10,,≥ 6.00,+++++,,"C[C@@H](O)c1nc2cnc3ccsc3c2n1[C@H]1CC[C@H](O)CC1 [Example 3, trans-4-{2-[(1R)-1-Hydroxyethyl]-1H-imidazo[4,5-d]thieno[3,2-b]pyridin-1-yl}cyclohexanol]"
>10,≥ 5.70,≥ 7.00,,,"C[C@@H](O)c1nc2cnc3ccsc3c2n1[C@H]1CC[C@@H](C#N)CC1 [Example 7, cis-4-{2-[(1R)-1-Hydroxyethyl]-1H-imidazo[4,5-d]thieno[3,2-b]pyridin-1-yl}cyclohexanecarbonitrile]"
>10,,≥ 7.00,+++++,,"C[C@@H](O)c1nc2cnc3ccsc3c2n1[C@H]1CC[C@H](CO)CC1 [Example 11, (1R)-1-{1-[trans-4-(Hydroxymethyl)cyclohexyl]-1H-imidazo[4,5-d]thieno[3,2-b]pyridin-2-yl}ethanol]"
>10,≥ 5.70,≥ 7.00,,,"C[C@@H](O)c1nc2cnc3ccsc3c2n1[C@H]1CC[C@H](CF)CC1 [Example 12, (1R)-1-{1-[trans-4-(Fluoromethyl)cyclohexyl]-1H-imidazo[4,5-d]thieno[3,2-b]pyridin-2-yl}ethanol]"
>10,< 5.70,≥ 7.00,,,"C[C@@H](O)c1nc2cnc3ccsc3c2n1C1CCCCC1 [Example 13, (1R)-1-(1-Cyclohexyl-1H-imidazo[4,5-d]thieno[3,2-b]pyridin-2-yl)ethanol]"

# Continued, compound first:
Compound,JAK2/JAK1 (human JAK1 [1]),pIC50 (human JAK2),pIC50 (human JAK1 [2]),JAK2 IC50 (nM) (human JAK2),JAK1 IC50 (nM) (human JAK1 [2])
"Cc1nc2cnc3ccsc3c2n1[C@@H]1CC[C@@H](CC#N)[C@@H](O)C1 (mixture of isomers) [Example 34, Mixture of [(1R,2R,4S)-2-hydroxy-4-(2-methyl-1H-imidazo[4,5-d]thieno[3,2-b]pyridin-1-yl)cyclohexyl]acetonitrile trifluoroacetate and [(1S,2S,4R)-2-hydroxy-4-(2-methyl-1H-imidazo[4,5-d]thieno[3,2-b]pyridin-1-yl)cyclohexyl]acetonitrile trifluoroacetate]",>10,,,,
CCc1nc2cnc3ccsc3c2n1[C@H]1CC[C@H](CC#N)[C@H](O)C1 (racemic) [Example 35],,< 5.70,≥ 7.00,,
"C[C@@H](O)c1nc2cnc3ccsc3c2n1C1CCC(O)(CC#N)CC1 (single isomer, unassigned) [24 (first peak)]",>10,< 5.70,≥ 7.00,,
"C[C@@H](O)c1nc2cnc3ccsc3c2n1C1CCC(O)(CC#N)CC1 (single isomer, unassigned) [24 (second peak)]",,,≥ 6.00,,
"C[C@@H](O)c1nc2cnc3ccsc3c2n1C1CCC(NCCC#N)CC1 (single isomer, unassigned) [30 (first peak)]",>2,< 5.70,≥ 6.00,,
"C[C@@H](O)c1nc2cnc3ccsc3c2n1C1CCC(NCCC#N)CC1 (single isomer, unassigned) [30 (second peak)]",>10,,≥ 5.70,+++++,
"N#CCC1CCC(CO)(n2cnc3cnc4ccsc4c32)CC1 (single isomer, unassigned) [72 (second peak), [4-(Hydroxymethyl)-4-(1H-imidazo[4,5-d]thieno[3,2-b]pyridin-1-yl)cyclohexyl]acetonitrile]",>5,≥ 6.00,≥ 7.00,,
"C[C@@H](O)c1nc2cnc3ccsc3c2n1[C@H]1CC[C@H](CC#N)CC1 [Example 2, (trans-4-{2-[(1R)-1-Hydroxyethyl]-1H-imidazo[4,5-d]thieno[3,2-b]pyridin-1-yl}cyclohexyl)acetonitrile]",>10,,,,
"C[C@@H](O)c1nc2cnc3ccsc3c2n1[C@H]1CC[C@H](NCC(F)(F)F)CC1 [Example 4, (1R)-1-(1-{trans-4-[(2,2,2-Trifluoroethyl)amino]cyclohexyl}-1H-imidazo[4,5-d]thieno[3,2-b]pyridin-2-yl)ethanol]",>10,≥ 5.70,≥ 7.00,,
"C[C@@H](O)c1nc2cnc3ccsc3c2n1[C@H]1CC[C@H](CCS(C)(=O)=O)CC1 [Example 5, (1R)-1-(1-{trans-4-[2-(Methylsulfonyl)ethyl]cyclohexyl}-1H-imidazo[4,5-d]thieno[3,2-b]pyridin-2-yl)ethanol]",>10,,≥ 7.00,+++++,
"C[C@@H](O)c1nc2cnc3ccsc3c2n1[C@H]1CC[C@@H](n2cncn2)CC1 [Example 6, (1R)-1-{1-[cis-4-(1H-1,2,4-Triazol-1-yl)cyclohexyl]-1H-imidazo[4,5-d]thieno[3,2-b]pyridin-2-yl}ethanol]",>6,,≥ 5.70,+++++,
"C[C@@H](O)c1nc2cnc3ccsc3c2n1[C@H]1CC[C@H](CCC#N)CC1 [Example 8, 3-(trans-4-{2-[(1R)-1-Hydroxyethyl]-1H-imidazo[4,5-d]thieno[3,2-b]pyridin-1-yl}cyclohexyl)propane nitrile]",>10,≥ 6.00,≥ 7.00,,
"C[C@@H](O)c1nc2cnc3ccsc3c2n1[C@H]1CC[C@H](CC#N)CC1.Cl [Example 10, (trans-4-{2-[(1R)-1-Hydroxyethyl]-1H-imidazo[4,5-d]thieno[3,2-b]pyridin-1-yl}cyclohexyl)acetonitrile HCl salt]",>10,≥ 6.00,≥ 7.00,,
"CNS(=O)(=O)C[C@H]1CC[C@H](n2c([C@@H](C)O)nc3cnc4ccsc4c32)CC1 [Example 14, 1-(trans-4-{2-[(1R)-1-hydroxyethyl]-1H-imidazo[4,5-d]thieno[3,2-b]pyridin-1-yl}cyclohexyl)-N-methylmethanesulfonamide]",>5,,≥ 6.00,+++++,
"C[C@@H](O)c1nc2cnc3ccsc3c2n1C1CCN(CC(F)(F)F)CC1 [Example 15, (1R)-1-{1-[1-(2,2,2-Trifluoroethyl)piperidin-4-yl]-1H-imidazo[4,5-d]thieno[3,2-b]pyridin-2-yl}ethanol]",>9,,≥ 5.70,+++++,
"C[C@@H](O)c1nc2cnc3ccsc3c2n1[C@H]1CCCN(C(=O)CCC(F)(F)F)C1 [Example 52, (1R)-1-{1-[(3S)-1-(4,4,4-Trifluorobutanoyl)piperidin-3-yl]-1H-imidazo[4,5-d]thieno[3,2-b]pyridin-2-yl}ethanol]",>10,,≥ 6.00,,
"Cc1nn2cnc3ccsc3c2c1[C@H]1CC[C@H](CC#N)CC1 [Example 77, [trans-4-(8-Methylpyrazolo[1,5-c]thieno[2,3-e]pyrimidin-9-yl)cyclohexyl]acetonitrile]",,≥ 7.00,≥ 7.00,,
"[(1R,2S,4S)-4-(2-Ethyl-1H-imidazo[4,5-d]thieno[3,2-b]pyridin-1-yl)-2-hydroxycyclohexyl]acetonitrile and [(1S,2R,4R)-4-(2-ethyl-1H-imidazo[4,5-d]thieno[3,2-b]pyridin-1-yl)-2-hydroxycyclohexyl]acetonitrile [40 (second peak)]",,,< 5.70,+++++,
"[(1R,2S,4S)-4-(2-Methyl-1H-imidazo[4,5-d]thieno[3,2-b]pyridin-1-yl)-2-hydroxycyclohexyl]acetonitrile and [(1S,2R,4R)-4-(2-methyl-1H-imidazo[4,5-d]thieno[3,2-b]pyridin-1-yl)-2-hydroxycyclohexyl]acetonitrile [41 (second peak)]",,,< 5.70,+++++,
